Data from patent US8106044B2, “8-{4-[3-(5-fluoro-1H-indol-3-yl)-propyl]-piperazin-1-yl}-2-methyl-4H-benzo[1,4]oxazin-3-one mesylate with high affinity for the dopamine D2 receptor and the serotonin reuptake site” (Solvay Pharmaceuticals B.V., priority 2001, dated 2012).
Structures can show the parent of a compound that is named as a salt.

Experiments:
solubility in water = type: physicochemical; conditions: in comparison with the free base
bio-availability = conditions: in vivo

- bio-availability (bio-availability): good
SMILES: CC1Oc2c(cccc2N2CCN(CCCc3c[nH]c4ccc(F)cc34)CC2)NC1=O (centres unmarked) [mesylate, 8-{4-[3-(5-fluoro-1H-indol-3-yl)-propyl]-piperazin-1-yl}-2-methyl-4H-benzo[1,4]oxazin-3-one mesylate]
- solubility in water (solubility in water): much better soluable in water than the free base
